# Assays:
# [1] = Clearance study, liver microsomes (mice); settings: mouse, pH 7.4
# [2] = Clearance study, liver microsomes (rats); settings: rat, pH 7.4
# [3] = Clearance study, liver microsomes (human); settings: pH 7.4
Structure (SMILES),microsomal CLint at 1 μM [1] [µL/min/mg],microsomal CLint at 1 μM [2] [µL/min/mg],microsomal CLint at 1 μM [3] [µL/min/mg]
CC(C)CCNC(=O)c1ccc2c(c1)N=C(c1ccccn1)c1ccccc1S2 [drawing 1784],68,,
CCCCNC(=O)c1ccc2c(c1)N=C(c1ccc(Cl)cn1)c1ccccc1S2 [drawing 1704],477,320,70
CC(C)CNC(=O)c1ccc2c(c1)N=C(c1ccc(Cl)c(Cl)c1)c1ccccc1S2 [drawing 1671],107,26,4
O=C(NCc1cccc(Cl)c1)c1ccc2c(c1)N=C(N1CCC(F)(F)CC1)c1ccccc1S2 [drawing 1800],120,,
Cc1ccsc1C1=Nc2cc(C(=O)NCc3cccs3)ccc2Sc2ccccc21 [drawing 1781],852,542,227
CCCCNC(=O)c1cc2c(cc1O)Sc1ccccc1C(c1ccc(Cl)cc1)=N2 [drawing 1672],12,7,
CCCCNC(=O)c1ccc2c(c1)N=C(c1ccc(Cl)cc1)c1ccccc1[S+]2[O-] (stereo not drawn) [drawing 1736],53,41,31
O=C(NCc1cccc(Cl)c1)c1ccc2c(c1)N=C(c1ccc(Cl)cc1)c1cc(F)ccc1S2 [drawing 1686],96,48,3
O=C(NCc1cccs1)c1ccc2c(c1)N=C(c1cccc(Cl)c1)c1ccccc1S2 [drawing 1733],187,99,32
CC(C)CNC(=O)c1ccc2c(c1)N=C(c1ccc(Cl)s1)c1ccc(Cl)cc1S2 [drawing 1679],,56,5
CCCCNC(=O)c1ccc2c(c1)N=C(c1cccc(Cl)c1)c1cc(F)ccc1S2 [drawing 1682],,63,16
CCCCNC(=O)c1ccc2c(c1)N=C(c1ccc(Cl)cc1)c1sccc1S2 [drawing 1717],79,,
O=C(NCc1ccc(F)cc1)c1ccc2c(c1)N=C(c1ccccc1)c1ccccc1S2 [drawing 1787],,242,73
CCN(CCNC(=O)c1ccc2c(c1)N=C(c1ccc(Cl)cc1)c1ccccc1S2)c1ccccc1 [drawing 1698],,210,157
O=C(NN1CCCCC1)c1ccc2c(c1)N=C(C1CCCCC1)c1ccccc1S2 [drawing 1695],349,,
Cc1cccc(C2=Nc3cc(C(=O)NCc4ccc(C)o4)ccc3Sc3ccccc32)n1 [drawing 1789],,632,114
O=C(NCCc1ccc(Cl)cc1)c1ccc2c(c1)N=C(C1CCCCC1)c1ccccc1S2 [drawing 1737],,230,138
O=C(NCc1cccc(Cl)c1)c1ccc2c(c1)N=C(N1CCC(F)CC1)c1ccccc1S2 [drawing 1714],,477,96
Cc1csc(CNC(=O)c2ccc3c(c2)N=C(c2cccc(C)n2)c2ccccc2S3)c1 [drawing 1727],,725,113
CC(C)CNC(=O)c1ccc2c(c1)N=C(c1ccc(Cl)s1)c1ccccc1S2 [drawing 1681],412,,

Structure (SMILES),microsomal CLint at 1 μM [1] [µL/min/mg],microsomal CLint at 1 μM [2] [µL/min/mg],microsomal CLint at 1 μM [3] [µL/min/mg]
CC(C)CNC(=O)c1ccc2c(c1)N=C(c1ccc(Cl)cn1)c1ccc(Cl)cc1S2 [drawing 1806],,135,13
CC(CNC(=O)c1ccc2c(c1)N=C(c1ccc(Cl)cc1)c1ccccc1S2)c1ccccc1 (stereo not drawn) [drawing 1743],,179,62
Cc1cccc(C2=Nc3cc(C(=O)NCC(C)C)ccc3Sc3ccccc32)n1 [drawing 1692],,204,35
O=C(NCc1ccccc1Br)c1ccc2c(c1)N=C(c1ccc(Cl)cc1)c1ccccc1S2 [drawing 1788],,36,10
CCN(CCNC(=O)c1ccc2c(c1)N=C(C1CCCCC1)c1ccccc1S2)c1ccccc1 [drawing 1747],,379,249
Cc1ccc(N2CCN(C(=O)c3ccc4c(c3)N=C(c3ccc(Cl)cc3)c3ccccc3S4)CC2)c(C)c1 [drawing 1808],,39,37
O=C(NCc1ccc(F)cc1)c1ccc2c(c1)N=C(c1ccc(Cl)cc1)c1ccccc1S2(=O)=O [drawing 1776],,17,13
Cc1csc(CNC(=O)c2ccc3c(c2)N=C(c2ccc(Cl)s2)c2ccccc2S3)c1 [drawing 1707],,90,27
O=C(NCCCC(F)(F)F)c1ccc2c(c1)N=C(c1cccc(F)c1)c1ccccc1S2 [drawing 1719],,182,24
O=C(NCCCc1ccccc1)c1ccc2c(c1)N=C(c1cccc(Cl)c1)c1ccccc1S2 [drawing 1765],,163,72
COc1cccc(C2=Nc3cc(C(=O)NCCCC(F)(F)F)ccc3Sc3ccccc32)n1 [drawing 1667],,144,24
Cc1ccc(CNC(=O)c2ccc3c(c2)N=C(c2cccc(Cl)c2)c2ccccc2S3)o1 [drawing 1705],,147,37
O=C(NCCCC(F)(F)F)c1ccc2c(c1)N=C(c1ccc(Cl)cc1)c1ccccc1S2 [drawing 1703],,86,13
O=C(NCCc1ccc(Cl)cc1)c1ccc2c(c1)N=C(N1CCCCC1)c1ccccc1S2 [drawing 1783],,506,434
O=C(NCc1cccc(Cl)c1)c1ccc2c(c1)N=C(N1CCCCC1)c1ccccc1[S+]2[O-] (stereo not drawn) [drawing 1774],,416,90
O=C(NC1CCC(F)(F)CC1)c1ccc2c(c1)N=C(c1ccc(Cl)s1)c1ccccc1S2 [drawing 1699],,158,20
O=C(NCc1ccc(F)cc1)c1ccc2c(c1)N=C(N1CCCCC1)c1ccccc1S2 [drawing 1738],,735,255
O=C(NCCC(F)(F)F)c1ccc2c(c1)N=C(c1cccc(Cl)c1)c1ccccc1S2 [drawing 1721],,40,18
CCCCNC(=O)c1ccc2c(c1)N=C(c1ccc(Cl)cn1)c1ccc(F)cc1S2 [drawing 1778],,227,29
O=C(NCc1ccccc1Cl)c1ccc2c(c1)N=C(c1ccccc1)c1ccccc1S2 [drawing 1780],,178,57

Structure (SMILES),microsomal CLint at 1 μM [1] [µL/min/mg],microsomal CLint at 1 μM [2] [µL/min/mg],microsomal CLint at 1 μM [3] [µL/min/mg]
CCCCNC(=O)c1ccc2c(c1)N=C(c1ccc(Cl)cc1)c1cc(F)ccc1S2 [drawing 1702],,74,12
O=C(NCCc1cccc(Cl)c1)c1ccc2c(c1)N=C(c1ccc(Cl)cc1)c1ccccc1S2 [drawing 1766],,116,56
Cc1ccc(CNC(=O)c2ccc3c(c2)N=C(c2ccc(F)cc2)c2ccccc2S3)o1 [drawing 1711],,258,39
O=C(NCc1cccc(Cl)c1)c1ccc2c(c1)N=C(c1ccc(F)cc1)c1ccccc1[S+]2[O-] (stereo not drawn) [drawing 1790],,76,24
O=C(NCCc1ccc(Cl)cc1)c1ccc2c(c1)N=C(N1CCC(F)(F)CC1)c1ccccc1S2 [drawing 1802],,289,343
CCCCNC(=O)c1ccc2c(c1)N=C(c1ccc(Cl)s1)c1cc(F)ccc1S2 [drawing 1710],,111,41
CCCCNC(=O)c1ccc2c(c1)N=C(c1ccc(Cl)cc1)c1ccccc1S2 [drawing 1661],99,,
O=C(NCc1cccc(Cl)c1)c1ccc2c(c1)N=C(C1CCCCC1)c1ccccc1S2 [drawing 1777],,458,70
O=C(NCCc1ccc(Cl)cc1)c1ccc2c(c1)N=C(c1ccc(F)cc1)c1ccccc1S2 [drawing 1799],,208,100
CCOC(=O)N1CCC(NC(=O)c2ccc3c(c2)N=C(c2ccc(Cl)cc2)c2ccccc2S3)CC1 [drawing 1726],,89,88
O=C(NCc1ccccc1)c1ccc2c(c1)N=C(C1CCCCC1)c1ccccc1S2 [drawing 1779],,351,81
COc1ccc(C2=Nc3cc(C(=O)NCCC(C)C)ccc3Sc3ccccc32)cc1 [drawing 1785],,177,123
CC(C)CNC(=O)c1ccc2c(c1)N=C(c1cccc(Cl)c1)c1ccccc1S2 [drawing 1795],69,,
CC(C)CNC(=O)c1ccc2c(c1)N=C(c1ccsc1)c1ccccc1S2 [drawing 1753],,427,546
O=C(NCc1cccc(Cl)c1)c1ccc2c(c1)N=C(c1cccc(Cl)c1)c1ccccc1S2 [drawing 1729],,74,36
O=C(NCCc1cccc(Cl)c1)c1ccc2c(c1)N=C(c1ccc(F)cc1)c1ccccc1S2 [drawing 1768],,126,37
CCCCNC(=O)c1ccc2c(c1)N=C(c1cccc(Cl)c1)c1cc(Cl)ccc1S2 [drawing 1750],,52,13
Cc1csc(CNC(=O)c2ccc3c(c2)N=C(c2cccc(F)c2)c2ccccc2S3)c1 [drawing 1709],,160,42
CC(C)CNC(=O)c1ccc2c(c1)N=C(c1ccc(Cl)cc1)c1ccc(Cl)cc1S2 [drawing 1718],,37,4
